Source: patent EP4596537A1, “NOVEL FLUORENE DERIVATIVE COMPOUND AND USE THEREOF” (JD Bioscience Inc., priority 2022, dated 2024)

Test system: Mfn2^-/^- MEF cells
Assay: Mitochondrial oxygen consumption rate (Seahorse), Charcot-Marie-Tooth disease model
Format: cell-based, mouse
Details: 1 µM, 24 hours
Description: To verify the functional loss due to mutation of MFN2 present in the outer mitochondrial membrane, which is the main cause of Charcot-Marie-Tooth disease, the mitochondrial oxygen consumption rate (OCR) was measured. In detail, Mfn2^+/^+ MEF cells (normal cells), which are mouse embryonic fibroblasts expressing Mfn2, and Mfn2^-/^- MEF cells not expressing Mfn2 were cultured at a density of 1 × 10^4 for 24 hours in a Seahorse XF24 culture dish using a DMEM medium supplemented with 10% FBS and penicillin/streptomycin. The cells were treated with DMSO as a vehicle and Compound 1 (1 µM) and cultured for another 24 hours. The mitochondrial oxygen consumption rate was measured using a […] (Agilent Technologies), and the results are shown in FIG. 13.

CC(C(=O)NNc1ccc(F)cc1)n1cc(-c2cc(F)cc3c2-c2ccccc2C3(O)C(F)(F)F)cn1 (stereo not shown) [Example 1, 2-(4-(2-fluoro-9-hydroxy-9-(trifluoromethyl)-9H-fluoren-4-yl)-1H-pyrazol-1-yl)-N'-(4-fluorophenyl)propanehydrazide] was tested, and the “mitochondrial oxygen consumption rate (OCR)” value was “markedly restored to a level comparable to that of normal cells”.
